Here are results for 15 compounds from publication PMC3272345 (Chemmedchem, 2011).

In one data set the target is T1, Leishmania CRK3–CYC6 (Leishmania mexicana, UniProt O15851).
T1 sequence (O15851 1-311): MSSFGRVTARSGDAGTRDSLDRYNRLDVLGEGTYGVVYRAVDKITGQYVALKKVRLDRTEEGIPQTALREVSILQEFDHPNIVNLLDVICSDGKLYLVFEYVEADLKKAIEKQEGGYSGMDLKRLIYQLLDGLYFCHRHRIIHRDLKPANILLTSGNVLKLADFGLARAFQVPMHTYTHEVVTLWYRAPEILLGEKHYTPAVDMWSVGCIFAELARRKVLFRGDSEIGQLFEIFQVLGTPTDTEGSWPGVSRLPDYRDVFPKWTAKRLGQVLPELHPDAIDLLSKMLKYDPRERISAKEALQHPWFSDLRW
T1 sequence (Q4Q4U0 1-303 partner): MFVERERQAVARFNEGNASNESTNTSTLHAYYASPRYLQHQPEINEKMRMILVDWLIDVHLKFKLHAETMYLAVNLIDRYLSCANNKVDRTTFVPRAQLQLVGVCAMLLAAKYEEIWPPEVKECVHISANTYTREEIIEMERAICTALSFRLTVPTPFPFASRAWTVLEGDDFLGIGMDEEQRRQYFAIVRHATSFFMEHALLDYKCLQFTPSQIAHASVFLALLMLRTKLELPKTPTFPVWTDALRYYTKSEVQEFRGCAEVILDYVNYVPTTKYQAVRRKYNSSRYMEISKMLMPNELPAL
The experiment in a line: radiometric CRK3 assay. It is filed as biochemical, L. mexicana CRK3, L. major CYC6.

The target of a further data set is HsCDK2–CYCA (Homo sapiens, UniProt P24941). The experiment in a line: radiometric CDK2 counter-screen. Format: biochemical. The following applies: HsCDK2–CYCA IC50 [μM], mean of two or more experiments; 1 μM ATP. In general terms: Counterscreens check selectivity or assay interference.
Data set [1] is described as follows: mammalian cell line counter-screen. The following applies: human, MRC5 cells. Format: cell-based.
For data set [2], the target named is T2, Leishmania CRK3–CYC6 complex (Leishmania mexicana, UniProt O15851).
T2 sequence (O15851 1-311): T1 sequence (O15851 1-311)
T2 sequence (Q4Q4U0 1-303 partner): T1 sequence (Q4Q4U0 1-303 partner)
Nature of the data set: IMAP-FP primary screen. Format: biochemical, L. mexicana CRK3, L. major CYC6. The note with it: for inhibition at 30 µM: read-out: CRK3–CYC6 Inhib. [%].

For data set [3], the system named is panel of 76 human kinases. Nature of the data set: DSTT Dundee kinase panel. It is filed as biochemical. The following applies: for selectivity against panel of 76 human kinases (in words): 10 μM.
[4] abbreviates: CRK3–CYC6 IC50 [μM], mean of two or more experiments, 1 μM ATP.

For the compound `CC1(C)CC(=O)C=C(NC(=O)Nc2ccccc2)C1` [Compound 50], the values for the IC50 against Leishmania CRK3–CYC6 (setting [4]) and on HsCDK2–CYCA were 0.095 µM and greater than 100 µM, respectively. The EC50 in data set [1] is no less than 50000 nM.

As for `Cc1cccc(-c2ccc3nc(NCC4CCCCC4)nn3c2)c1` [Compound 36], the figures for the IC50 against Leishmania CRK3–CYC6 (setting [4]) and against HsCDK2–CYCA were 3 µM and 64 µM, respectively.

In turn, `CC1(C)CC(=O)C=C(NC(=O)Nc2ccc(O)cc2)C1` [Compound 60] gave an IC50 on HsCDK2–CYCA of 5.9 µM.

`O=C(Nc1cc(-c2ccc(Cl)cc2)[nH]n1)C1CCCCC1` [Compound 11, N-[5-(4-Chlorophenyl)-1H-pyrazol-3-yl]cyclohexanecarboxamide]: the inhibition at 30 µM in data set [2] came out at 100%. The “selectivity against panel of 76 human kinases (in words)” value (from here on “selectivity against panel”) in data set [3] is “highly selective”. Further, the “number of human kinases with >50 % inhibition at 10 μM” value in data set [3] (of 76 kinases) was “three”.

With `COC(=O)c1ccc(NC(=O)NC2=CC(=O)CC(C)(C)C2)cc1` [Compound 59], the IC50 at HsCDK2–CYCA was greater than 100 µM. Also, in data set [3], the “selectivity against panel” value is “highly selective”.

For the compound `CC(=O)Nc1cc(-c2ccc(Cl)cc2)n[nH]1` [Compound 2, N-(5-(4-Chlorophenyl)-1H-pyrazol-3-yl)acetamide], the inhibition at 30 µM in data set [2] is 74%. Moreover, the IC50 against Leishmania CRK3–CYC6 (setting [4]) was determined as 3 µM; against HsCDK2–CYCA, 1.6 µM.

For the compound `O=C(Nc1cc(-c2ccc(Cl)cc2)[nH]n1)c1cccnc1` [Compound 10, N-(5-(4-Chlorophenyl)-1H-pyrazol-3-yl)nicotinamide], in data set [2], the inhibition at 30 µM was found to be 100%.

On to `O=C(Nc1cc(-c2ccc(Cl)cc2)[nH]n1)C1CCC1` [Compound 7, N-(5-(4-Chlorophenyl)-1H-pyrazol-3-yl)cyclobutanecarboxamide], for which the inhibition at 30 µM in data set [2] is 99%. In addition, the IC50 on Leishmania CRK3–CYC6 (setting [4]) stood at 0.9 µM; against HsCDK2–CYCA it was 1.2 µM.

As to `CN[C@@H]1C[C@H]2O[C@@](C)([C@@H]1OC)n1c3ccccc3c3c4c(c5c6ccccc6n2c5c31)C(=O)NC4` [staurosporine, reference compound], the figures for the 50% inhibitory concentration (IC50) (in data set [2]; on Leishmania CRK3–CYC6 (potency (IC50) in radiometric Leishmania CRK3 assay)) were 29 nM and 0.0091 µM, respectively.

Regarding `COc1ccc(NC(=O)NC2=CC(=O)CC(C)(C)C2)cc1` [Compound 57], the IC50 at Leishmania CRK3–CYC6 (setting [4]) was 0.89 µM; against HsCDK2–CYCA, greater than 100 µM.

Take `COc1cccc(NC(=O)NC2=CC(=O)CC(C)(C)C2)c1` [Compound 56, 1-(5,5-Dimethyl-3-oxocyclohex-1-en-1-yl)-3-(3-methoxyphenyl)urea]: the IC50 was 0.04 µM against Leishmania CRK3–CYC6 (setting [4]) and greater than 100 µM against HsCDK2–CYCA.

For the compound `CC1(C)CC(=O)C=C(NC(=O)NC2CCCCC2)C1` [Compound 54, 1-Cyclohexyl-3-(5,5-dimethyl-3-oxocyclohex-1-en-1-yl)urea], the values for the IC50 on Leishmania CRK3–CYC6 (setting [4]) and at HsCDK2–CYCA were 0.098 µM and greater than 100 µM, respectively.

With `COc1ccccc1NC(=O)NC1=CC(=O)CC(C)(C)C1` [Compound 55], the IC50 was 8 µM at Leishmania CRK3–CYC6 (setting [4]) and greater than 100 µM on HsCDK2–CYCA.

`O=C1C=C(NC(=O)Nc2ccccc2)CCC1` [Compound 61]: the IC50 on Leishmania CRK3–CYC6 (setting [4]) and against HsCDK2–CYCA was greater than 100 µM each time.

Take `CC1(C)CC(=O)C=C(NC(=O)Nc2ccc(OCc3ccccc3)cc2)C1` [Compound 58]: the IC50 was 0.11 µM against Leishmania CRK3–CYC6 (setting [4]) and greater than 100 µM against HsCDK2–CYCA. Also, the “selectivity against panel” value in data set [3] is given as “highly selective”.

The term IC50 denotes the concentration that gives 50% inhibition. Higher therefore signals weaker potency in that assay. What is called EC50 is the concentration giving half of the maximal effect. Higher therefore signals weaker potency.
